Values of other authors as cited in patent US9072786B2, “Method of manufacturing an implantable device” (Endo Pharmaceuticals Solutions Inc., priority 2008, dated 2015).

Assays:
[1] = hydrophilic-lipophilic balance of the surfactant
[2] = concentration of surfactant at which micelles form

Compound | HLB [1] | CMC [2] [mM]
CCCCCCCC/C=C\CCCCCCCC(=O)OCCOCC(OCCO)C1OCC(OCCO)C1OCCO (stereo not shown) [Tween 80] | 15 | 0.012
Sucrose monolaurate | ~8 | 0.2
